Test results reported in patent US7371822B2, “Human G-protein coupled receptor variant of HM74, HGPRBMY74” (Bristol-Myers Squibb Company, priority 2003, dated 2008).
Read-outs that look alike come from different tables or passages of the source.

Test system: human kidney 293E cells stably transfected with Gαiq—5
Test: cells
Conditions: 293E cells with Gαiq—5 coding region only
Protocol: The growth medium in the 6-well plate was replaced with antibiotic-free medium at 3 ml per well. DNA complexes were added at 320 μl per well and plates were returned to the incubator. […] 25 μl of this suspension was added to 30 ml of selective medium in a 15 cm tissue culture plate. Cells were maintained in selective medium for approximately two weeks. Five single clones were isolated and grown in 24-well, then 6-well, then T-75 tissue culture plates.
Thirty hours later cells were loaded with 100 μl loading dye. […] A stock solution of Probenecid (Sigma P8761) was prepared by dissolving 70 mg in 500 μl 1 M NaOH and then adding 500 μl of FIPR assay buffer. This was added to the loading solution at a final concentration of 700 μg/ml. After adding the loading dye, cells were returned to the incubator for one hour.
After one hour loading, dye was removed from the wells by gentle aspiration and replaced with 120 μl of FLIPR assay buffer.
Data were analyzed and plotted using XLfit (IDBS).

SMILES: O=C(O)c1cccnc1 [nicotinic acid, Nicotinic acid]
- EC50 (Homo sapiens, read-out: calculated EC50, FIG. 5): 833 nM
- EC50 (read-out: calculated EC50, FIG. 5): 823 nM
